Test results published in PMC11378297, “Discovery and Profiling of New Multimodal Phenylglycinamide Derivatives as Potent Antiseizure and Antinociceptive Drug Candidates” (ACS Chemical Neuroscience, 2024).
Like-named read-outs stand apart in the source and are kept apart here.

Tests used:
[1] = metabolic stability in human liver microsomes (HLMs); assay type: in vitro ADME; conditions: for remaining at 2 h: human, human liver microsomes, 120 min incubation, TRIS buffer pH 7.4, 37 °C; for metabolic pathway: metabolites M1–M3 (one cell per metabolite)
[2] = tested on: 6 Hz (44 mA) seizures, mice; experiment: 6 Hz (44 mA) seizure test; assay type: in vivo; conditions: Mus musculus, ip, pretreatment time 0.5 h
Description: Both the aforementioned parameters (ED50 and TD50) enabled the calculation of protective indexes (PIs), which reflect the comparative the benefit–risk ratio of these experimental therapeutic agents.
Four mice per group were randomly assigned to each experimental group in the initial screening experiments (each mouse was used just once). Four groups, each with eight animals, received injections of different doses of the investigated substances in order to determine the ED50 or TD50 values. The PIs for the compounds investigated and reference ASMs were calculated by dividing the TD50 value, as determined in the chimney test by the respective ED50 value, as determined in the MES, scPTZ, or 6 Hz (32 mA or 44 mA) tests (PI = TD50/ED50). The PIs are a measure of the potential therapeutic window of the tested agent.

scPTZ seizures, mice = experiment: subcutaneous pentylenetetrazole (scPTZ) seizure test; assay type: in vivo, mouse; conditions: 100 mg/kg i.p., 0.5 h; for protection in the scPTZ seizures: four mice
Description: R-enantiomers (R)-31–(R)-33 due to broad and potent activity in both MES and 6 Hz (32 mA) were further evaluated in the scPTZ seizures. […] (i.e., KA-104, Figure 1) to acetyl moiety causes almost complete loss of protection against PTZ seizures.
All substances were suspended in Tween 80 (1% aqueous solution) and administered i.p. as a single injection at a volume of 10 mL/kg. On each day of experimentation, fresh solutions were prepared. The detailed in vivo procedures are described elsewhere: the maximal electroshock seizure test (MES),[83] the subcutaneous pentylenetetrazole seizure test (scPTZ),[84] the 6 Hz psychomotor seizure model (32 mA and 44 mA),[85] and the chimney test.[86] The reference ASMs were purchased from commercial suppliers: VPA (Sigma-Aldrich, St. Louis, MO, USA), LCS and LEV (UCB Pharma, Braine l’Alleud, Belgium).

[3] = tested on: ivPTZ seizure threshold, mice; experiment: timed ivPTZ seizure threshold test; assay type: in vivo, mouse; conditions: for effect on the threshold for the onset of any of the studied end points (ivPTZ): 30 min before test
Description: The effects of (R)-31, (R)-32, and (R)-33 on the thresholds for the first myoclonic twitch, generalized clonus with loss of righting reflex, and forelimb tonus in the timed ivPTZ seizure test in mice were evaluated in the following step of pharmacological characterization. […] It should be noted that the ivPTZ seizure test is an extremely sensitive method for determining the seizure threshold in rodents.[47] In this model, (R)-31 at a dose of 50 mg/kg had no effect on the threshold for the onset of any of the studied end points. […] Compounds (R)-32 and (R)-33 were tested at a dose of 50 mg/kg only. […] (R)-33 was ineffective in the ivPTZ seizure threshold test.
Figure 2 Effect of eutomers (R)-31, (R)-32, and (R)-33 on the thresholds for the onset of (A) myoclonic twitch, (B) generalized clonus, and (C) forelimb tonic extension in the timed ivPTZ test in mice. (R)-31, (R)-32, and (R)-33 were administered, i.p., 30 min before the seizure test. Control animals received vehicle. Data are presented as means + SD in mg/kg of PTZ necessary to induce each of the three end points (n = 7–14 animals). Statistical significance was evaluated using Student’s t-test: **p < 0.01, ****p < 0.0001 vs the vehicle-treated group (GraphPad Prism 8.4.3).
30 min prior to the testing, eutomers (R)-31, (R)-32, and (R)-33 were given i.p. after being suspended in a 1% Tween 80 solution. To reduce the number of animals utilized, neuromuscular strength measurements were made right before the seizure threshold test. The grip-strength test and the timed ivPTZ test experimental protocols were covered in full elsewhere.[87]

body temperature, mice = experiment: capsaicin-induced hypothermia test / rectal temperature; assay type: in vivo, mouse; conditions: 50 mg/kg i.p.
Description: In this study, we used the capsaicin-induced hypothermia model in mice to evaluate the effect of eutomers (R)-31, (R)-32, and (R)-33 on body temperature and to provide more data related to their on-target activity (i.e., antagonism of TRPV1) (Figure S5A–D). Capsaicin given i.p. at a dose of 5 mg/kg produced a marked decrease in rectal temperature at 15 min post injection (p < 0.0001). The temperature returned to normal values within 30–60 min after capsaicin injection. […] None of the tested compounds reversed the capsaicin-induced hypothermia.
The changes in body temperature in the capsaicin-induced hypothermia model were evaluated as described previously. Eutomers (R)-31, (R)-32, and (R)-33 were suspended in a 1% Tween 80 and administered i.p. 15 min before injection of capsaicin (5 mg/kg, i.p.). The corresponding vehicles (1% DMSO or 1% Tween 80) were given to the control animals. Using an electronic thermometer (ThermoWorks, Alpine, Utah, USA), changes in the mouse’s rectal temperature were recorded by inserting the rectal probe approximately 2 cm into the mouse’s rectum. After −15, 0, 15, 30, 60, 90, 120, and 180 min, the measurements were collected. Subsequently, the variations in rectal temperature between the baseline ([…] for the groups receiving compounds and BCTC in conjunction with the vehicle, or […] for the groups receiving the vehicle, compounds, and BCTC in combination with the capsaicin) and the corresponding time point ΔT (°C) were computed and examined.
Figure S5. Acute effects of BCTC (A), (R)-31 (B), (R)-32 (C), and (R)-33 (D) on rectal temperature in the capsaicin-induced test in mice. Capsaicin (CPS) or vehicle (1% DMSO) were injected i.p. at 0 min, as indicated by the arrows.
BCTC, (R)-31, (R)-32, and (R)-33 were suspended in 1% Tween 80 and administered i.p. 15 min before CPS or vehicle injection. The temperature was measured at -15, 0, 15, 30, 60, 90, 120, and 180 min. Since body temperature returned to control values 60 min after CPS injection, subsequent measurements are not shown.
Data are presented as the mean differences (ΔT) in rectal temperature from 0 to -15 min (time point 0 min), from 15 to 0 min (time point 15 min), from 30 to 0 min (time point 30 min), and from 60 to 0 min (time point 60 min); n = 6–8 animals/group. Statistical significance was evaluated using one-way ANOVA with Tukey’s post hoc test: […]
(1 picture or pasted object on this page, not shown here)

[4] = biological target: T1, Voltage-Gated Sodium channel hNav1.7 (Homo sapiens, UniProt Q15858); experiment: human sodium ion channel cell based automated patch clamp assay, hNav1.7
T1 construct: Eurofins Discovery (St. Charles, MO, USA)
T1 sequence (Q15858 whole entry): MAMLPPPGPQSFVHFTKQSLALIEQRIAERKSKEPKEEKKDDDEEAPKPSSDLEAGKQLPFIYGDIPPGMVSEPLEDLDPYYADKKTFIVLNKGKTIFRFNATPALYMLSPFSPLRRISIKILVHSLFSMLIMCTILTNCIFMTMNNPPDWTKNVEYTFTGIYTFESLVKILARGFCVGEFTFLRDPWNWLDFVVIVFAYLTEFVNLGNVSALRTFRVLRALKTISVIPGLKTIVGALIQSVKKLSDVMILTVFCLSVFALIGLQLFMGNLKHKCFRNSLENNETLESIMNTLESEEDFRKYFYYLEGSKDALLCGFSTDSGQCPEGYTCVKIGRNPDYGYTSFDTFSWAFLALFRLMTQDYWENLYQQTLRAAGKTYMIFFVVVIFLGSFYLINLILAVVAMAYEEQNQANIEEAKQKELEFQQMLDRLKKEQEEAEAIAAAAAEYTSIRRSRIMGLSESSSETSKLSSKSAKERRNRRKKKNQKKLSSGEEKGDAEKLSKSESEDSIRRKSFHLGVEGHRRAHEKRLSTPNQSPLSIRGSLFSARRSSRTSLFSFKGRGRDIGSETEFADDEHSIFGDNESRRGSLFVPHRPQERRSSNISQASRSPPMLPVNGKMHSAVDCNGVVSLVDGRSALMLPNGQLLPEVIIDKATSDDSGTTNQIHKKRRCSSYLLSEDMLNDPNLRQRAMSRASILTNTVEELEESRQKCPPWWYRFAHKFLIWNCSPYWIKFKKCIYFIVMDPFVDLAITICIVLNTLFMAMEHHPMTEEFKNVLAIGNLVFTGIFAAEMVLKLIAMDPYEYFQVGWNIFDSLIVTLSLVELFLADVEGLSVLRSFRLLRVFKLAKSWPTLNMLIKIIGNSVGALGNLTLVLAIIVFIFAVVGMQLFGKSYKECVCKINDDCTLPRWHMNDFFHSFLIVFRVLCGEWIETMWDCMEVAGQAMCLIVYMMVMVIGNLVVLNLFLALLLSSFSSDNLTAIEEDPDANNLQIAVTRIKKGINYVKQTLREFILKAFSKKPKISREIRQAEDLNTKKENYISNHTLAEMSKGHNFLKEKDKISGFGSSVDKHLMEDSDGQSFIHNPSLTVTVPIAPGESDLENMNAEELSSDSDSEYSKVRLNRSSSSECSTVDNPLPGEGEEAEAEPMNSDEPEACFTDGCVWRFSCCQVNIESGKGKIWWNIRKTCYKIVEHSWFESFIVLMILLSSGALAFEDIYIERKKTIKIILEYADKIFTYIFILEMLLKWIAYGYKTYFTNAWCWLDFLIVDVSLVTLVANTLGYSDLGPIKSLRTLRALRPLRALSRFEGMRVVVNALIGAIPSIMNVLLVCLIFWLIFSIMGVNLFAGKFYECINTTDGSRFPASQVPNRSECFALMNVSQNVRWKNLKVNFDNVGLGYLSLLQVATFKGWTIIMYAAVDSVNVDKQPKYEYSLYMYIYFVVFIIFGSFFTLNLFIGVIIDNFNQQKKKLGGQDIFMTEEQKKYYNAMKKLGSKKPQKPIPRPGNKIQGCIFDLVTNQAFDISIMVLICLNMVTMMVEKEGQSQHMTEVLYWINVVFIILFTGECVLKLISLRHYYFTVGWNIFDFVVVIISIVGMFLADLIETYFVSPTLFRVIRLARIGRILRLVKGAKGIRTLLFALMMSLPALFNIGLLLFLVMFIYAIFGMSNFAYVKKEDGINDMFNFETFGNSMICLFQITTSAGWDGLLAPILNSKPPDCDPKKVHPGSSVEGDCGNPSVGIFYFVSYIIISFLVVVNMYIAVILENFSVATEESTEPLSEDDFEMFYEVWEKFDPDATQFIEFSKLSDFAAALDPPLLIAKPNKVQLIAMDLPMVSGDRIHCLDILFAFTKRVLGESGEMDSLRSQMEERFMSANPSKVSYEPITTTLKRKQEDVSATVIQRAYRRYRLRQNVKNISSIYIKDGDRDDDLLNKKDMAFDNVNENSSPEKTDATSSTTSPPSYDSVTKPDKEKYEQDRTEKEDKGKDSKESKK
Description: Human sodium ion channels cell based automated patch clamp assay
Human sodium ion channels cell based automated patch clamp assays: sodium channels exist in, a) a resting or closed state at -120 mV, b) a transient open state that inactivates to c) inactivated state at -10 mV. Sodium current inhibition within 1-2 ms of channel opening at 0 mV is open channel inhibition (pulse 1). In order to completely inactivate the sodium channels and facilitate inactivated state-dependent binding of the drug, the channels were kept at open state ( -10 mV) longer (pulsed for 500 ms) and then stepped back to -120 mV for 10 ms to recover from inactivation into resting or closed
open) before stepping to -10 mV for 50 ms (pulse 2) to mea sure sodium channels that are available to open. […] Pulse 1 and 2 are used to investigate drug binding to the open state and inactivated state of the Na channels, respectively. Each concentration of compound is applied for 5 minutes.
Voltage-Gated Sodium channel hNav1.1

[5] = hNav1.7, Pulse 1 (open state), read-out: % Inhibition Mean
[6] = hNav1.7, Pulse 1 (open state), read-out: % Inhibition n1
[7] = hNav1.7, Pulse 1 (open state), read-out: % Inhibition n2
[8] = hNav1.7, Pulse 2 (inactivated state), read-out: % Inhibition Mean
[9] = hNav1.7, Pulse 2 (inactivated state), read-out: % Inhibition n1
[10] = hNav1.7, Pulse 2 (inactivated state), read-out: % Inhibition n2

SMILES: CC(=O)N[C@@H](C(=O)N1CCN(c2cccc(C(F)(F)F)c2)CC1)c1ccccc1 [(R)-31, (R)-N-(2-Oxo-1-phenyl-2-(4-(3-(trifluoromethyl)phenyl)piperazin-1-yl)ethyl)acetamide]
- remaining at 2 h [1]: 85.2%
- metabolic pathway ([1]; metabolite 404.19 (M2)): dehydrogenation
- metabolic pathway ([1]; metabolite 422.22 (M3)): hydroxylation
- metabolic pathway ([1]; metabolite 454.01 (M1)): triple-hydroxylation
- ED50 [2]: 44.2 mg/kg
- protection in the scPTZ seizures (scPTZ seizures, mice): 25%
- scPTZ: number of mice protected/number of mice tested (scPTZ seizures, mice): 1/4
- effect on the threshold for the onset of any of the studied end points (ivPTZ) ([3]; 50 mg/kg i.p.): had no effect
- threshold for generalized clonic seizure (ivPTZ) ([3]; 100 mg/kg i.p., p < 0.01): significantly raised the threshold
- effect on body (rectal) temperature, administered alone (body temperature, mice): did not significantly affect body temperature

SMILES: CC(=O)N[C@@H](C(=O)N1CCN(c2cccc(OC(F)(F)F)c2)CC1)c1ccccc1 [(R)-32, (R)-N-(2-Oxo-1-phenyl-2-(4-(3-(trifluoromethoxy)phenyl)piperazin-1-yl)ethyl)acetamide]
- inhibition at 1 µM [4, 5]: -5.74%
- inhibition at 1 µM [4, 6]: -4.13%
- inhibition at 1 µM [4, 7]: -7.35%
- inhibition at 10 µM [4, 5]: 6.15%
- inhibition at 10 µM [4, 6]: -0.03%
- inhibition at 10 µM [4, 7]: 12.3%
- inhibition at 100 µM [4, 5]: 22.9%
- inhibition at 100 µM [4, 6]: 19.2%
- inhibition at 100 µM [4, 7]: 26.5%
- inhibition at 1 µM [4, 8]: -3.08%
- inhibition at 1 µM [4, 9]: -3.09%
- inhibition at 1 µM [4, 10]: -3.07%
- inhibition at 10 µM [4, 8]: 37.8%
- inhibition at 10 µM [4, 9]: 35.3%
- inhibition at 10 µM [4, 10]: 40.4%
- inhibition at 100 µM [4, 8]: 98.4%
- inhibition at 100 µM [4, 9]: 98.7%
- inhibition at 100 µM [4, 10]: 98%
- remaining at 2 h [1]: 78.5%
- metabolic pathway ([1]; metabolite 420.22 (M2)): dehydrogenation
- metabolic pathway ([1]; metabolite 438.25 (M1)): hydroxylation
- ED50 [2]: 26.5 mg/kg
- protection in the scPTZ seizures (scPTZ seizures, mice): ineffective
- scPTZ: number of mice protected/number of mice tested (scPTZ seizures, mice): 0/4
- threshold for the onset of forelimb tonus (ivPTZ) ([3]; 50 mg/kg i.p.): did not affect the threshold
- threshold for the first myoclonic twitch (ivPTZ) ([3]; 50 mg/kg i.p., p < 0.0001): significantly increased the thresholds
- threshold for generalized clonus (ivPTZ) ([3]; 50 mg/kg i.p., p < 0.01): significantly increased the thresholds
- effect on body (rectal) temperature, administered alone (body temperature, mice): did not significantly affect body temperature

SMILES: CC(=O)N[C@@H](C(=O)N1CCN(c2cccc(SC(F)(F)F)c2)CC1)c1ccccc1 [(R)-33, (R)-N-(2-Oxo-1-phenyl-2-(4-(3-((trifluoromethyl)thio)phenyl)piperazin-1-yl)ethyl)acetamide]
- remaining at 2 h [1]: 70.3%
- metabolic pathway ([1]; metabolite 436.21 (M2)): dehydrogenation
- metabolic pathway ([1]; metabolite 454.08 (M3)): hydroxylation
- protection in the scPTZ seizures (scPTZ seizures, mice): ineffective
- scPTZ: number of mice protected/number of mice tested (scPTZ seizures, mice): 0/4
- effect on the threshold for the onset of any of the studied end points (ivPTZ) ([3]; 50 mg/kg i.p.): ineffective
- effect on body (rectal) temperature, administered alone (body temperature, mice): caused a significant drop in rectal temperature

SMILES: CCCCNc1ccc(C(=O)OCCN(C)C)cc1 [Tetracaine, reference compound]
- inhibition at 3 µM [4, 5]: 8.82%
- inhibition at 3 µM [4, 6]: 11.3%
- inhibition at 3 µM [4, 7]: 6.36%
- inhibition at 30 µM [4, 5]: 27.6%
- inhibition at 30 µM [4, 6]: 27.5%
- inhibition at 30 µM [4, 7]: 27.8%
- inhibition at 300 µM [4, 5]: 95.1%
- inhibition at 300 µM [4, 6]: 94.6%
- inhibition at 300 µM [4, 7]: 95.6%
- inhibition at 3 µM [4, 8]: 47.5%
- inhibition at 3 µM [4, 9]: 45.9%
- inhibition at 3 µM [4, 10]: 49.1%
- inhibition at 30 µM [4, 8]: 98.6%
- inhibition at 30 µM [4, 9]: 98%
- inhibition at 30 µM [4, 10]: 99.2%
- inhibition at 300 µM [4, 8]: 101%
- inhibition at 300 µM [4, 9]: 101%
- inhibition at 300 µM [4, 10]: 102%
